PubChem BioAssay (NCI)
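Cells were grown in 96-well plates and exposed to each compound for 48 hours at five concentrations; endpoints were interpolated linearly between bracketing concentrations, or set to the highest concentration if not reached. GI50 is the concentration that inhibits growth by half. Definition used: TGI = concentration required for complete inhibition of growth.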

What was measured:
Experiment in all cases: inhibition of tumour cell growth, NCI panel, 48 h
NCI-H522 lung = system: NCI-H522 lung
A498 renal = system: A498 renal
SN12C renal = system: SN12C renal
K-562 leukemia = system: K-562 leukemia
TK-10 renal = system: TK-10 renal
MALME-3M melanoma = system: MALME-3M melanoma
LOX IMVI melanoma = system: LOX IMVI melanoma
SF-268 CNS = system: SF-268 CNS
OVCAR-5 ovarian = system: OVCAR-5 ovarian
SK-MEL-2 melanoma = system: SK-MEL-2 melanoma
M14 melanoma = system: M14 melanoma
HT29 colon = system: HT29 colon
HOP-92 NSCLC = system: HOP-92 NSCLC
COLO 205 colon = system: COLO 205 colon
A549 NSCLC = system: A549 NSCLC
HS 578T breast = system: HS 578T breast
PC-3 prostate = system: PC-3 prostate
HOP-62 NSCLC = system: HOP-62 NSCLC
SK-MEL-28 melanoma = system: SK-MEL-28 melanoma
SR leukemia = system: SR leukemia
RXF 393 renal = system: RXF 393 renal
UACC-62 melanoma = system: UACC-62 melanoma
OVCAR-3 ovarian = system: OVCAR-3 ovarian
SNB-75 CNS = system: SNB-75 CNS
SF-295 CNS = system: SF-295 CNS
786-0 renal = system: 786-0 renal
SF-539 CNS = system: SF-539 CNS
HCT-116 colon = system: HCT-116 colon
KM12 colon = system: KM12 colon
T-47D breast = system: T-47D breast
UO-31 renal = system: UO-31 renal
MDA-MB-435 = system: MDA-MB-435
NCI-H460 lung = system: NCI-H460 lung
SK-OV-3 ovarian = system: SK-OV-3 ovarian
HL-60(TB) leukemia = system: HL-60(TB) leukemia
DU-145 prostate = system: DU-145 prostate
HCT-15 colon = system: HCT-15 colon
SNB-19 CNS = system: SNB-19 CNS
BT-549 breast = system: BT-549 breast
CAKI-1 renal = system: CAKI-1 renal
NCI/ADR-RES ovarian = system: NCI/ADR-RES ovarian
RPMI-8226 leukemia = system: RPMI-8226 leukemia
UACC-257 melanoma = system: UACC-257 melanoma
OVCAR-8 ovarian = system: OVCAR-8 ovarian
NCI-H226 lung = system: NCI-H226 lung
ACHN renal = system: ACHN renal
MOLT-4 leukemia = system: MOLT-4 leukemia
OVCAR-4 ovarian = system: OVCAR-4 ovarian
SK-MEL-5 melanoma = system: SK-MEL-5 melanoma
CCRF-CEM leukemia = system: CCRF-CEM leukemia
U251 CNS = system: U251 CNS
MCF7 breast = system: MCF7 breast
EKVX NSCLC = system: EKVX NSCLC
SW-620 colon = system: SW-620 colon
HCC-2998 colon = system: HCC-2998 colon
MDA-MB-231 breast = system: MDA-MB-231 breast
IGROV1 ovarian = system: IGROV1 ovarian
NCI-H23 lung = system: NCI-H23 lung

## CN1CCN(Cc2ccc(NC(=O)c3cncc(C#Cc4cnc5ccc(Cl)nn45)c3)cc2C(F)(F)F)CC1
NCI-H522 lung
  GI50: 0.878 µM
  TGI: 2.78 µM
A498 renal
  GI50: 1.12 µM
  TGI: 2.6 µM
SN12C renal
  GI50: 0.969 µM
  TGI: 3.48 µM
K-562 leukemia
  GI50: 0.005 µM
  TGI: 2.96 µM
TK-10 renal
  GI50: 1.64 µM
  TGI: 4.46 µM
MALME-3M melanoma
  GI50: 0.495 µM
  TGI: 1.23 µM
LOX IMVI melanoma
  GI50: 0.757 µM
  TGI: 1.6 µM
SF-268 CNS
  GI50: 1.25 µM
  TGI: 2.83 µM
OVCAR-5 ovarian
  GI50: 0.83 µM
  TGI: 3.55 µM
SK-MEL-2 melanoma
  GI50: 0.744 µM
  TGI: 1.98 µM
M14 melanoma
  GI50: 0.59 µM
  TGI: 1.34 µM
HT29 colon
  GI50: 0.747 µM
  TGI: 5.71 µM
HOP-92 NSCLC
  GI50: 0.454 µM
  TGI: 3.63 µM
COLO 205 colon
  GI50: 0.688 µM
  TGI: 2.08 µM
A549 NSCLC
  GI50: 1.28 µM
  TGI: 4.29 µM
HS 578T breast
  GI50: 0.886 µM
  TGI: 3.29 µM
PC-3 prostate
  GI50: 1.2 µM
  TGI: 5.24 µM
HOP-62 NSCLC
  GI50: 1.27 µM
  TGI: 3.73 µM
SK-MEL-28 melanoma
  GI50: 0.918 µM
  TGI: 2.59 µM
SR leukemia
  GI50: 0.975 µM
  TGI: 6.1 µM
RXF 393 renal
  GI50: 0.828 µM
  TGI: 1.77 µM
UACC-62 melanoma
  GI50: 0.925 µM
  TGI: 2.4 µM
OVCAR-3 ovarian
  GI50: 1.58 µM
  TGI: 4 µM
SNB-75 CNS
  GI50: 0.972 µM
  TGI: 2.1 µM
SF-295 CNS
  GI50: 1.38 µM
  TGI: 5.32 µM
786-0 renal
  GI50: 1.01 µM
  TGI: 1.85 µM
SF-539 CNS
  GI50: 0.54 µM
  TGI: 1.21 µM
HCT-116 colon
  GI50: 0.259 µM
  TGI: 1.34 µM
KM12 colon
  GI50: 0.005 µM
  TGI: 2.13 µM
T-47D breast
  GI50: 1.41 µM
  TGI: 6.58 µM
UO-31 renal
  GI50: 1.28 µM
  TGI: 3.36 µM
MDA-MB-435
  GI50: 0.736 µM
  TGI: 2.09 µM
NCI-H460 lung
  GI50: 0.871 µM
  TGI: 2.06 µM
SK-OV-3 ovarian
  GI50: 1.75 µM
  TGI: 4.96 µM
HL-60(TB) leukemia
  GI50: 0.318 µM
  TGI: 1.47 µM
DU-145 prostate
  GI50: 1.18 µM
  TGI: 4.38 µM
HCT-15 colon
  GI50: 0.901 µM
  TGI: 3.36 µM
SNB-19 CNS
  GI50: 1.78 µM
  TGI: 4.89 µM
BT-549 breast
  GI50: 1.45 µM
  TGI: 3.85 µM
CAKI-1 renal
  GI50: 1 µM
  TGI: 4.63 µM
NCI/ADR-RES ovarian
  GI50: 1.59 µM
  TGI: 5.24 µM
RPMI-8226 leukemia
  GI50: 0.954 µM
  TGI: 2.69 µM
UACC-257 melanoma
  GI50: 1.21 µM
  TGI: 4.13 µM
OVCAR-8 ovarian
  GI50: 1.46 µM
  TGI: 5.27 µM
NCI-H226 lung
  GI50: 0.507 µM
  TGI: 2.7 µM
ACHN renal
  GI50: 0.769 µM
  TGI: 2.94 µM
MOLT-4 leukemia
  GI50: 0.682 µM
  TGI: 3.89 µM
OVCAR-4 ovarian
  GI50: 0.453 µM
  TGI: 3.66 µM
SK-MEL-5 melanoma
  GI50: 0.849 µM
  TGI: 1.59 µM
CCRF-CEM leukemia
  GI50: 1.29 µM
  TGI: 4.84 µM
U251 CNS
  GI50: 1.22 µM
  TGI: 4.34 µM
MCF7 breast
  GI50: 0.287 µM
  TGI: 1.92 µM
EKVX NSCLC
  GI50: 0.91 µM
  TGI: 2.34 µM
SW-620 colon
  GI50: 0.631 µM
  TGI: 3.66 µM
HCC-2998 colon
  GI50: 0.949 µM
  TGI: 2.66 µM
MDA-MB-231 breast
  GI50: 0.567 µM
  TGI: 2.3 µM
IGROV1 ovarian
  GI50: 0.889 µM
  TGI: 3.54 µM
NCI-H23 lung
  GI50: 0.751 µM
  TGI: 2.18 µM
